# Measurements: US7514438B2, “Melanin concentrating hormone receptor antagonist” (Amgen, Inc., priority 2003, dated 2009)
# Read-outs that look alike come from different tables or passages of the source.
# Key:
# [1] = target: T1, rat MCH 1 receptor (rMCH1R) (Rattus norvegicus, UniProt P97639); test: 125I-MCH ligand binding assay, rMCH
# T1 construct: expressed in transfected cells; host or cells: HEK 293 (membranes)
# Experimental: (§1) Human embryonic kidney cells (293 total) expressing either human, rat, or mouse MCH receptor were harvested from 150 mm culture dishes using PBS. Spinning at 1500 rpm for 2 minutes initially pelleted cells. The resulting pellet was then homogenized in 15 mL ice cold sucrose buffer (25 mM HEPES, 0.3 M sucrose, pH 7.4) with a motorized, glass fitted, Teflon® homogenizer. The homogenate was centrifuged at 48,000×g at 4° C. for 10 minutes, resuspended in 15 mL assay buffer (25 mM HEPES, 10 mM mgCl2, 0.2% BSA, 0.1 mg/mL STI, 0.1 mg/mL Pefabloc®, 1 μM Phosphoramidon, pH 7.4) with a Tissue-Tearor® (Biospec Products) and centrifuged again at 48,000×g for 10 minutes. The pellet was homogenized for a third time in 15 mL assay buffer using the Tissue-Tearor® and again centrifuged at 48,000×g for 10 minutes. The resulting pellet was resuspended in assay buffer at a wet weight concentration of 10-20 mg/mL.
# (§2) Binding assays were determined as described below using mouse, rat or human MCH 1 receptors (mMCH1R, rMCH1R, and hMCH1R, respectively) expressed in HEK 293; IC50 values were calculated.
# (§3) Binding assays were performed in 96-well U-bottom plates. Membranes (100 μg tissue) were incubated at 30° C. for 90 minutes in assay buffer with various peptides in the presence of 0.2 nM ^125I native-MCH (Perkin-Elmer Life Sciences, Boston, Mass.) in 100 μL total volume. Non-specific binding was assessed in the presence of 1 μM cold native-MCH. The reaction was terminated by rapid filtration through Unfilter-96 GF/C glass fiber filter plates (FilterMate® 196 Harvester, Packard Instrument Co., Meriden, Conn.) pre-soaked in PBS/0.5% BSA, followed by three washes with 300 μL ice-cold water. Bound radioactivity was determined using a TopCount® microplate scintillation and luminescence counter (Packard Instrument Co., Meriden, Conn.). Nonlinear regression analyses of drug concentration curves were performed using GraphPad Prism® (GraphPad Software, Inc., San Diego, Calif.).
# [2] = target: T2, human MCH 1 receptor (hMCH1R) (Homo sapiens, UniProt Q99705); test: 125I-MCH ligand binding assay, hMCH
# T2 construct: expressed in transfected cells; host or cells: HEK 293 (membranes)
# Experimental: as §1, §2, §3
# rat MCH1 receptor = rat MCH1 receptor (Rattus norvegicus, UniProt P97639); test: rMCH FLIPR calcium mobilization assay (CHOK1-Gqi cells); assay type: cell-based; design: expressed in transfected cells; host or cells: CHOK1-Gqi
# Experimental: Pharmacological analyses were conducted using either a HT-PS100 device (Axiom Biotechnologies, San Diego, Calif.), which provides high-resolution dose-response fluorometric measurements of [Ca^++]i mobilization, or using a FLIPR® device (Molecular Devices, Sunnyvale, Calif.).
# Materials: Pharmacological analysis was conducted using a FLIPR® device (Molecular Devices, Sunnyvale, Calif.). CHOK1-Gqi cells were stably transfected with the rat MCH1 receptor and maintained under G418 antibiotic pressure. FLIPR® assay buffer consisted of phenol red-free DMEM+2.5 mM probenecid. […]. Test compounds were prepared as 10 mM stocks in 100% DMSO and diluted to a top end working concentration of 10 μM in 96 well black, flat bottom, collagen-I coated plates (Becton Dickinson, Bedford, Mass.).
# Methods: CHOK1-Gqi cells stably expressing MCH1R were maintained in Dulbeco's modified Eagle's medium (GIBCO/Life Technologies, Rockville, Md.) supplemented with 2 mM glutamine and 10% dialyzed fetal bovine serum (HyCLone, Logan, Utah) at 37° C., 5% CO2. Cells were harvested by 10′ treatment with Versene (GIBCO/Life Technologies) followed by trituration, washing twice with cold (4° C.) hybridoma medium (Serum/Protein free, with L-glutamine, sodium bicarbonate, MOPS buffer) (Sigma-Aldrich Corp, St. Louis, Mo.) and replated onto 96 well black, flat bottom, collagen-I coated plates to a density of 10,000 cells/well. The cells were then loaded with the fluorescent calcium indicator Fura-2 (Molecular Probes, Eugene, Oreg.) at 1.6 μM for 60′ at room temperature. The loaded cells were then washed twice with 90 μl/well of wash buffer (1×HBSS, 20 mM HEPES, 2.5 mM probenecid).
# Receptor-stimulated intracellular calcium responses were detected using FLIPR® by monitoring increases in the Fura-2 fluorescence response.
# Test compounds were screened for MCH1R activity in the FLIPR® for both agonist and antagonist action. Agonist mode challenges were conducted at a maximum gradient concentration of 1 μM. Antagonist activity was tested by 10 min pre-incubation of cells at a compound concentration of defined to be 300× the EC50 of MCH (typically 1 μM), with subsequent introduction of MCH at a concentration 5-fold of EC50 as determined in preliminary experiments. […].
# Several fixed concentrations of antagonist compounds were prepared in 10-fold increments, and presented to the cells in a gradient of increasing MCH concentration. Values for compound pA2 were calculated by linear regression of MCH EC50s as a function of antagonist concentration.
# human MCH receptor = target: T3, human MCH receptor (Homo sapiens, UniProt Q99705); test: hMCH FLIPR calcium mobilization assay; assay type: cell-based; details: 100 μM or less list; read-out: Ki in the hMCH FLIPR assay
# T3 construct: expressed in transfected cells
# [3] = HEK 293 membranes, 0.2 nM 125I native-MCH, 100 nM or less list, read-out: IC50 in the rMCH binding assay
# [4] = HEK 293 membranes, 0.2 nM 125I native-MCH, 100 μM or less list, read-out: IC50 in the rMCH binding assay
# [5] = HEK 293 membranes, 0.2 nM 125I native-MCH, 100 μM or less list, read-out: IC50 in the hMCH binding assay
# [6] = CHOK1-Gqi cells, rat MCH1 receptor, 100 μM or less list, read-out: Ki in the rMCH FLIPR assay
# [7] = HEK 293 membranes, 0.2 nM 125I native-MCH, 100 nM or less list, read-out: IC50 in the hMCH binding assay
# T3 sequence (Q99705 whole entry): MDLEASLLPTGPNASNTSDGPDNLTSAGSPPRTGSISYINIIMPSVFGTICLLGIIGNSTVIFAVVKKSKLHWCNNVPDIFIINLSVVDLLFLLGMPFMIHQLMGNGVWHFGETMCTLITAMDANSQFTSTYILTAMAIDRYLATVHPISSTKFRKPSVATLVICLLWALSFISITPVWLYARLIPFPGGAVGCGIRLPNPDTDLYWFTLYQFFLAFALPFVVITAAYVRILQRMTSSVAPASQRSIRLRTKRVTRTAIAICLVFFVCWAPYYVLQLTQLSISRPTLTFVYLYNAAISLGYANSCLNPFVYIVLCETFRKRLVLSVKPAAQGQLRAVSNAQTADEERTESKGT
# T2 sequence (Q99705 whole entry): as above
# T1 sequence (P97639 whole entry): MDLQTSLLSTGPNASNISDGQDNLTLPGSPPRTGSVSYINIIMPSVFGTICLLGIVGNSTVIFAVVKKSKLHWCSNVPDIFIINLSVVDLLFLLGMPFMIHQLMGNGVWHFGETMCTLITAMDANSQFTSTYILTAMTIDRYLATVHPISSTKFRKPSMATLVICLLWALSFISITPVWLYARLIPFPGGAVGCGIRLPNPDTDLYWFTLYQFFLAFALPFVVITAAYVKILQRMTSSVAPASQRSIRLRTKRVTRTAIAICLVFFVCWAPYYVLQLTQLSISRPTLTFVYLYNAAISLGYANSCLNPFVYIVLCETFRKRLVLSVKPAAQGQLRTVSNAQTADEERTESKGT
# rat MCH1 receptor, sequence (P97639 whole entry): as above
SMILES,"IC50 [1, 4] [µM]","IC50 [2, 5] [µM]",Ki (rat MCH1 receptor; [6]) [µM],other results
"Cc1cccc(C)c1-n1nnnc1C1(N2CCN(C/C=C/c3ccccc3)CC2)CCCCC1 [Compound 92, 1-{1-[1-(2,6-dimethylphenyl)-1H-tetrazol-5-yl]cyclohexyl)-4-(3-phenylallyl)piperazine]",–,–,–,IC50 [1]: ≤ 100 µM; IC50 [2]: ≤ 100 µM; Ki (rat MCH1 receptor): ≤ 100 µM
"Cc1cccc(C)c1-n1nnnc1[C@H](c1cccc2c1OCO2)N1CCN(C/C=C/c2ccccc2)CC1 (racemic) [Compound 81, 1-{benzo[1,3]diaxol-4-yl-[1-(2,6-dimethylphenyl)-1H-tetrazol-5-yl]methyl}-4-(3-phenylallyl)piperazine]",≤ 100,≤ 100,–,–
"C(=C\c1ccccc1)/CN1CCN([C@@H](c2ccccc2)c2nnnn2CC2CCCO2)CC1 (stereo in doubt) [Compound 33, 1-(3-phenylallyl)-4-{phenyl-[1-(tetrahydrofuran-2-ylmethyl)-1H-tetrazol-5-yl]methyl}piperazine]",≤ 100,≤ 100,–,–
"Cc1cccc(C)c1-n1nnnc1[C@H](c1cccc(Oc2ccc(Cl)c(Cl)c2)c1)N1CCN(C/C=C/c2ccccc2)CC1 (racemic) [Compound 72, 1-{[3-(3,4-dichlorophenoxy)phenyl]-[1-(2,6-dimethylphenyl)-1H-tetrazol-5-yl]methyl}-4-(3-phenylallyl) piperazine]",≤ 100,≤ 100,–,–
"FC(F)(F)c1cccc([C@@H](c2nnnn2-c2c(Cl)cccc2Cl)N2CCN(C/C=C/c3ccccc3)CC2)c1 (racemic) [Compound 164, 1-[[1-(2,6-dichlorophenyl)-1H-tetrazol-5-yl]-(3-trifluoromethylphenyl)methyl]-4-(3-phenylallyl)piperazine]",≤ 100,≤ 100,–,–
"Cc1cccc(C)c1-n1nnnc1[C@H](c1cccc(Oc2ccccc2)c1)N1CCN(C/C=C/c2ccccc2)CC1 (racemic) [Compound 12, 1-[[1-(2,6-dimethyiphenyl)-1H-tetrazol-5-yl]-(3-phenoxyphenyl)methyl]-4-(3-phenylallyl)piperazine]",≤ 100,≤ 100,≤ 100,–
"Cc1cccc(C)c1-n1nnnc1[C@H](c1ccccc1C#N)N1CCN(C/C=C/c2ccccc2)CC1 (racemic) [Compound 80, 2-{[1-(2,6-dimethylphenyl)-1H-tetrazol-5-yl]-[4-(3-phenylallyl)piperazin-1-yl]methyl}benzonitrile]",≤ 100,≤ 100,–,–
"Cc1cccc(C)c1-n1nnnc1[C@H](c1ccc(F)cc1)N1CCN(C/C=C/c2ccccc2)CC1 (racemic) [Compound 58, 1-[[1-(2,6-dimethylphenyl)-1H-tetrazol-5-yl]-(4-fluorophenyl)methyl]-4-(3-phenylallyl)piperazine]",≤ 100,≤ 100,–,–
"CC(C)(C)n1nnnc1[C@H](c1ccccc1)N1CCN(C/C=C/c2ccccc2)CC1 (racemic) [Compound 14, 1-[(1-tert-butyl-1H-tetrazol-s-yl)phenylmethyl]-4-(3-phenylallyl)piperazine]",≤ 100,≤ 100,–,–
"COC(=O)C(Cc1ccccc1)n1nnnc1[C@H](c1ccccc1)N1CCN(C/C=C/c2ccccc2)CC1 (stereo in doubt) [Compound 26, 3-phenyl-2-(5-{phenyl-[4-(3-phenylallyl)piperazin-1-yl]methyl}tetrazol-1-yl)propionic acid methyl ester]",≤ 100,≤ 100,–,–
"Cc1cccc(C)c1-n1nnnc1[C@H](c1cccc(Oc2cc(Cl)cc(Cl)c2)c1)N1CCN(C/C=C/c2ccccc2)CC1 (racemic) [Compound 87, 1-{[3-(3,5-dichloro-phenoxy)-phenyl]-[1-(2,6-dimethylphenyl)-1H-tetrazol-5-yl]methyl}-4-(3-phenylallyl)piperazine]",–,≤ 100,≤ 100,Ki (human MCH receptor): ≤ 100 µM

# The next lines start with results.
"IC50 [1, 4] [µM]","IC50 [2, 5] [µM]",Ki (rat MCH1 receptor; [6]) [µM],SMILES,other results
≤ 100,≤ 100,≤ 100,"Cc1cccc(C)c1-n1nnnc1C(c1ccc(-c2ccccc2)cc1)N1CCN(C/C=C/c2ccccc2)CC1 (centres unmarked) [Compound 11, 1-{biphenyl-4-yl-[1-(2,6-dimethyiphenyl)-1H-tetrazol-5-yl]methyl}-4-(3-phenylallyl)piperazine]","IC50 [1, 3]: ≤ 0.1 µM; Ki (rat MCH1 receptor; CHOK1-Gqi cells, rat MCH1 receptor, 100 nM or less list, read-out: Ki in the rMCH FLIPR assay): ≤ 0.1 µM"
≤ 100,≤ 100,≤ 100,C(=C\c1ccccc1)/CN1CCN([C@@H](c2ccccc2)c2nnnn2-c2ccc3[nH]ccc3c2)CC1 (racemic) [Compound 20],"Ki (human MCH receptor): ≤ 100 µM; IC50 [2, 7]: ≤ 0.1 µM"
≤ 100,≤ 100,≤ 100,"Cc1cccc(C)c1-n1nnnc1[C@H](c1cccc(C#N)c1)N1CCN(C/C=C/c2ccccc2)CC1 (stereo in doubt) [Compound 133, 3-{[1-(2,6-dimethylphenyl)-1H-tetrazol-5-yl]-[4-(3-phenylallyl)piperazin-1-yl]methyl}benzonitrile]",Ki (human MCH receptor): ≤ 100 µM
≤ 100,≤ 100,≤ 100,"Cc1cccc(C)c1-n1nnnc1[C@H](c1cccc(C(F)(F)F)c1)N1CCN(CC=C(c2ccccc2)c2ccccc2)CC1 (racemic) [Compound 144, 1-[[1-(2,6-dimethylphenyl)-1H-tetrazol-5-yl]-(3-trifluoromethylphenyl)methyl]-4-(3,3-diphenylallyl)piperazine]","Ki (human MCH receptor): ≤ 100 µM; IC50 [1, 3]: ≤ 0.1 µM; IC50 [2, 7]: ≤ 0.1 µM"
–,≤ 100,≤ 100,"Cc1cccc(C)c1-n1nnnc1[C@H](c1ccncc1)N1CCN(C/C=C/c2ccccc2)CC1 (racemic) [Compound 86, 1-{[1-(2,6-dimethylphenyl)-1H-tetrazol-5-yl]pyridin-4-ylmethyl}-4-(3-phenylallyl)piperazine]",Ki (human MCH receptor): ≤ 100 µM
≤ 100,≤ 100,–,"C(=C\c1ccccc1)/CN1CCN([C@@H](c2ccccc2)c2nnnn2-c2cccc3c2CCCC3)CC1 (racemic) [Compound 38, 1-(3-phenylallyl)-4-{phenyl-[1-(5,6,7,8-tetrahydronaphthalen-1-yl)-1H-tetrazol-5-yl]methyl}piperazine]",–
